In patent US10562869B2, “Oxadiazole compounds” (REMYND NV, priority 2014, dated 2020):

system: M17_3SYN cells; experiment: Paraquat-induced cytotoxicity (LDH) in α-synuclein over-expressing M17_3SYN neuroblastoma cells; assay type: cell-based, human; conditions: Homo sapiens, Neuroblastoma cell, 48 h, toxicity inhibition (LDH) in M17_3SYN cells challenged with 6 mM paraquat, 2 days; read-out: SYN EC50
From the text: A α-synuclein expression plasmid was constructed by subcloning the NcoI/XhoI fragment from 212T-SYN(WT) (Griffioen et al., Biochem Biophys Acta (2006) 1762(3):312-318) containing the cDNA of human wild type α-synuclein correspondingly into a standard mammalian expression vector pcDNA3.1 resulting in plasmid pcDNA3.1-SYNwt. Plasmids pcDNA3.1 and pcDNA3.1-SYNwt were transfected into human neuroblastoma cells (BE-M17; ATCC No. CRL-2267™) using lipofectamine reagent and subsequently, independent clonal cell lines with the plasmids stably integrated into the genome were selected by antibiotic resistance selection (Geneticin (G418)), resulting in cell lines M17.pcDNA3 and M17_3SYN. Overexpression of α-synuclein in the M17_3SYN cell line was confirmed by Western blot analysis.
Due to the high levels of α-synuclein, M17_3SYN cells were sensitive to paraquat, a well-known risk factor Parkinson's disease and of synuclein-dependent neuronal degeneration. Cytotoxicity of cells was measured by quantification of lactate dehydrogenase (LDH) levels. In dead cells, LDH leaked out of the cells into the medium due to a loss of plasma-membrane integrity.
[…], primary pre-cultures of M17.pcDNA3 (as possible control) and M17_3SYN cells were prepared, starting from a stock culture, at a density of 20.000-40.000 cells/cm2 in culture medium (Opti-MEM® Reduced Serum Medium with Phenol Red (Invitrogen, Cat. 31985-047) supplemented with 10% FCS, 1 mM sodium pyruvate, 1×NEAA, 500 μg/ml G418 and 0.5×antibiotic/antimycotic (ABAM)). 3 days later these primary pre-cultures were used as a starting point to make secondary pre-cultures at a density of 50.000-100.000 cells/cm^2. At the day of the experiment these secondary precultures were diluted to ˜0.5·10^6 cells/ml in detection medium (Opti-MEM® Reduced-Serum Medium without Phenol Red (Invitrogen, Cat. 11085-021) supplemented with 10% FCS, 1 mM sodium pyruvate, 1×NEAA, 500 μg/ml G418 and 0.5×ABAM) and 60 μL of this suspension was dispensed per well into a 96-well microtiter plate. After 3 hours of incubation at 37° C./5% CO2 an equal volume of detection medium containing a final concentration of 6 mM Paraquat was added and subsequently incubated for 2 days at 37° C./5% CO2. Then LDH activity was determined using the Promega Cytotox 96 Non-Radioactive cytotoxicity assay (Promega, Cat. G1780), according to the manufacturer's instructions. Cytotoxicity was defined as the ratio of LDH relative to the total LDH in the cells and supernatant.
The assay described above using the M17_3SYN cell line allowed screening compounds for their ability to decrease cytotoxicity in PQ-challenged cells. Compounds of the invention were tested for their ability to decrease toxicity at different concentrations, ranging from low non-effective concentrations to high effective concentrations. Afterwards, a dose-dependent inhibition curve was used to calculate the EC50. A compound was considered to be active in this test when it inhibited toxicity by more than 20% relative to untreated M17_3SYN cells at a concentration of 10 μM or lower.

**Q.** For `Cc1ccc(-c2noc(N3CCN(S(=O)(=O)c4ccc(C(F)(F)F)cc4)CC3)n2)cc1` [Cmpd016, 3-(p-Tolyl)-5-(4-((4-(trifluoromethyl)phenyl)sulfonyl)piperazin-1-yl)-1,2,4-oxadiazole], which EC50 is on record?
**A.** 9 nM

**Q.** Which EC50 does the source give for `COc1ccc(S(=O)(=O)N2CCN(c3nc(Cc4ccccc4)no3)CC2)cc1` [Cmpd037, 1-(3-Benzyl-[1,2,4]oxadiazol-5-yl)-4-(4-methoxy-benzenesulfonyl)-piperazine] here?
**A.** 3 nM

**Q.** For `CCOc1ccc(S(=O)(=O)N2CCN(c3nc(Cc4ccccc4)no3)CC2)cc1` [Cmpd038, 1-(3-Benzyl-[1,2,4]oxadiazol-5-yl)-4-(4-ethoxy-benzenesulfonyl)-piperazine], which EC50 is on record?
**A.** 13 nM

**Q.** Which EC50 does the source give for `O=S(=O)(c1ccc(OC(F)F)cc1)N1CCN(c2nc(Cc3ccccc3)no2)CC1` [Cmpd039, 1-(3-Benzyl-[1,2,4]oxadiazol-5-yl)-4-(4-difluoromethoxy-benzenesulfonyl)-piperazine] here?
**A.** 11 nM

**Q.** With `CCC(c1ccccc1)c1noc(N2CCN(S(=O)(=O)c3ccc(OC)cc3)CC2)n1` (stereo not shown) [Cmpd044, 5-(4-((4-Methoxyphenyl)sulfonyl)piperazin-1-yl)-3-(1-phenylpropyl)-1,2,4-oxadiazole] as the compound, how does the EC50 read?
**A.** 15 nM

**Q.** For `CCOc1ccc(S(=O)(=O)N2CCN(c3nc(C(CC)c4ccccc4)no3)CC2)cc1` (stereo not shown) [Cmpd045, 1-(4-Ethoxy-benzenesulfonyl)-4-[3-(1-phenyl-propyl)-[1,2,4]oxadiazol-5-yl]-piperazine], which EC50 is on record?
**A.** 18 nM

**Q.** Which EC50 does the source give for `CCC(c1ccccc1)c1noc(N2CCN(S(=O)(=O)c3ccc(OC(F)F)cc3)CC2)n1` (stereo not shown) [Cmpd046, 1-(4-Difluoromethoxy-benzenesulfonyl)-4-[3-(1-phenyl-propyl)-[1,2,4]oxadiazol-5-yl]-piperazine] here?
**A.** 59 nM

**Q.** For `CC[C@@H](c1ccccc1)c1noc(N2CCN(S(=O)(=O)c3ccc(OC)cc3)CC2)n1` [Cmpd050, 1-(4-Methoxy-benzenesulfonyl)-4-[3-((S)-1-phenyl-propyl)-[1,2,4]oxadiazol-5-yl]-piperazine], which EC50 is on record?
**A.** 68 nM

**Q.** For `CC[C@H](c1ccccc1)c1noc(N2CCN(S(=O)(=O)c3ccc(OC)cc3)CC2)n1` [Cmpd051, 1-(4-Methoxy-benzenesulfonyl)-4-[3-((R)-1-phenyl-propyl)-[1,2,4]oxadiazol-5-yl]-piperazine], which EC50 is on record?
**A.** 46 nM

**Q.** For `COc1ccc(S(=O)(=O)N2CCN(c3nc(Cc4ccc(Cl)cc4)no3)CC2)cc1` [Cmpd052, 1-[3-(4-Chloro-benzyl)-[1,2,4]oxadiazol-5-yl]-4-(4-methoxy-benzenesulfonyl)-piperazine], which EC50 is on record?
**A.** 24 nM

**Q.** With `CCOc1ccc(S(=O)(=O)N2CCN(c3nc(Cc4ccc(Cl)cc4)no3)CC2)cc1` [Cmpd053, 1-[3-(4-Chloro-benzyl)-[1,2,4]oxadiazol-5-yl]-4-(4-ethoxy-benzenesulfonyl)-piperazine] as the compound, how does the EC50 read?
**A.** 31 nM

**Q.** Which EC50 does the source give for `O=S(=O)(c1ccc(OC(F)F)cc1)N1CCN(c2nc(Cc3ccc(Cl)cc3)no2)CC1` [Cmpd054, 1-[3-(4-Chloro-benzyl)-[1,2,4]oxadiazol-5-yl]-4-(4-difluoromethoxy-benzenesulfonyl)-piperazine] here?
**A.** 19 nM

**Q.** `COc1ccc(S(=O)(=O)N2CCN(c3nc(Cc4cccc(Cl)c4)no3)CC2)cc1` [Cmpd072, 1-[3-(3-Chloro-benzyl)-[1,2,4]oxadiazol-5-yl]-4-(4-methoxy-benzenesulfonyl)-piperazine] was tested. Which EC50 did it give?
**A.** 3 nM

**Q.** How did the EC50 turn out when `CCOc1ccc(S(=O)(=O)N2CCN(c3nc(Cc4cccc(Cl)c4)no3)CC2)cc1` [Cmpd073, 1-[3-(3-Chloro-benzyl)-[1,2,4]oxadiazol-5-yl]-4-(4-ethoxy-benzenesulfonyl)-piperazine] was run?
**A.** 33 nM

**Q.** How did the EC50 turn out when `O=S(=O)(c1ccc(OC(F)F)cc1)N1CCN(c2nc(Cc3cccc(Cl)c3)no2)CC1` [Cmpd074, 1-[3-(3-Chloro-benzyl)-[1,2,4]oxadiazol-5-yl]-4-(4-difluoromethoxy-benzenesulfonyl)-piperazine] was run?
**A.** 10 nM

**Q.** Which EC50 does the source give for `O=c1[nH]c2cc(S(=O)(=O)N3CCN(c4nc(Cc5cccc(Cl)c5)no4)CC3)ccc2o1` [Cmpd077, 5-{4-[3-(3-Chloro-benzyl)-[1,2,4]oxadiazol-5-yl]-piperazine-1-sulfonyl}-3H-benzooxazol-2-one] here?
**A.** 139 nM
